Experimental findings from patent US20250304535A1, “KAT6 Inhibitors” (BeiGene Switzerland GmbH, priority 2024, published 2025) are described below.

The target of experiment [1] is Recombinant human KAT6A protein (497-780) (Homo sapiens (Human), UniProt Q92794). Kind of experiment: KAT6A biochemical TR-FRET assay. The settings on record: histone H4 peptide 2000 nM, AcCoA 300 nM, enzyme 5 nM. On the technique in general: TR-FRET usually uses a lanthanide donor and a delayed reading to cut background.
Chain of Recombinant human KAT6A protein (497-780) (Q92794 497-780): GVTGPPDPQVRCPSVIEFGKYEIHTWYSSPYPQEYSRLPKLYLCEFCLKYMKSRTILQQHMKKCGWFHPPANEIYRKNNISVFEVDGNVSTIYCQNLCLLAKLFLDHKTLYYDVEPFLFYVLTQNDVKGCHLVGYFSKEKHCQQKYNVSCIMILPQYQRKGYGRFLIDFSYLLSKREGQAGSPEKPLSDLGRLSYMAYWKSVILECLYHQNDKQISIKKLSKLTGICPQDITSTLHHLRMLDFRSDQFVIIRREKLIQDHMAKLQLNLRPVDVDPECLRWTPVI
For experiment [2], the target named is Recombinant human KAT6B protein (657-1069) (Homo sapiens (Human), UniProt Q8WYB5). Kind of experiment: KAT6B biochemical TR-FRET assay. The note with it: histone H4 peptide 1000 nM, AcCoA 100 nM, enzyme 5 nM.
Chain of Recombinant human KAT6B protein (657-1069) (Q8WYB5 657-1069): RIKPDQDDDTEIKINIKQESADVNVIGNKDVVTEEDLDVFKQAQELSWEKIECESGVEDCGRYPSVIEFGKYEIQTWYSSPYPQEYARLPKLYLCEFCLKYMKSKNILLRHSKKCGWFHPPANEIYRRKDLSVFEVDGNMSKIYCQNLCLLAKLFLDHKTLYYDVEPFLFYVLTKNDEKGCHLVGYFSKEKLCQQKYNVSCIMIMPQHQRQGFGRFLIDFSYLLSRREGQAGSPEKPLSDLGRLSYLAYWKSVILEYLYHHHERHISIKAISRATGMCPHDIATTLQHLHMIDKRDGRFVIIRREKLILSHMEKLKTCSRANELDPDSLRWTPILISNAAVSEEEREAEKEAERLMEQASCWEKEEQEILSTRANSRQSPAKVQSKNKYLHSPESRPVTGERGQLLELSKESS
The subject of experiment [3] is histone H3K23 acetylation in U-2 OS cells. Kind of experiment: Histone H3 lysine 23 acetylation assay in U-2 OS cells (high content analysis). The format is cell-based. The note with it: 24 hrs exposure, H3K23ac level. In outline: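 U-2 OS cells seeded overnight, then exposed 24 h to a 9-point compound dilution series; 0.1% DMSO medium as blank. Fixed, permeabilised, stained with anti-H3K23ac plus Alexa Fluor 647 secondary and DAPI; nuclear H3K23ac intensity read by high-content imaging. Inhibition = mean per-well cell intensity relative to on-plate blanks.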

pIC50: −log10 of the molar value. Bounds are passed on as bounds.

Take `[2H]C([2H])([2H])Oc1nc(C(=O)NS(=O)(=O)c2c(OC)ccc3c2OCC3(C)C)ccc1Cn1cccn1` [Example C64, 5-((1H-pyrazol-1-yl)methyl)-6-(methoxy-d3)-N-((6-methoxy-3,3-dimethyl-2,3-dihydrobenzofuran-7-yl)sulfonyl) picolinamide]: the pIC50 in experiment [1] and in experiment [2] was not below 8.30 each time. This compound also gave an IC50 in experiment [3] (Homo sapiens, U2OS) not above 10 nM.

For `CCc1cc(C(=O)NS(=O)(=O)c2cc(C(C)(C)C)ccc2OC)ccc1Cn1cccn1` [Example C6, 4-((1H-pyrazol-1-yl)methyl)-N-((5-(tert-butyl)-2-methoxyphenyl)sulfonyl)-3-ethylbenzamide], the pIC50 in experiment [1] and in experiment [2] was not below 8.30 each time. The compound further came in with an IC50 in experiment [3] (Homo sapiens, U2OS) not above 10 nM.

For `COc1ccc(C(C)(C)C)cc1S(=O)(=O)NC(=O)c1ccc(Cn2cccn2)c(I)c1` [Example C1, 4-((1H-pyrazol-1-yl)methyl)-N-((5-(tert-butyl)-2-methoxyphenyl)sulfonyl)-3-iodobenzamide], the negative logarithm of the IC50 (pIC50) in experiment [1] and in experiment [2] was not below 8.30 throughout. Besides, the IC50 in experiment [3] (Homo sapiens, U2OS) is not above 10 nM.

For the compound `C#Cc1cc(C(=O)NS(=O)(=O)c2cc(C(C)(C)C)ccc2OC)ccc1Cn1cccn1` [Example C15, 4-((1H-pyrazol-1-yl)methyl)-N-((5-(tert-butyl)-2-methoxyphenyl)sulfonyl)-3-ethynylbenzamide], the negative-log IC50 (pIC50) in experiment [1] and in experiment [2] was not below 8.30 in each case. Besides, the half-inhibitory concentration (IC50) in experiment [3] (Homo sapiens, U2OS) is not above 10 nM.

On to `COc1cc(C(=O)NS(=O)(=O)c2nc(C(C)(C)C)ccc2OC)ccc1Cn1cccn1` [Example C27, 4-((1H-pyrazol-1-yl)methyl)-N-((6-(tert-butyl)-3-methoxypyridin-2-yl)sulfonyl)-3-methoxy-benzamide], for which the pIC50 in experiment [1] and in experiment [2] was not below 8.30 in each case. The IC50 in experiment [3] (Homo sapiens, U2OS) is not above 10 nM.

`COc1ccc(C(C)(C)C(F)(F)F)nc1S(=O)(=O)NC(=O)c1ccc(Cn2cccn2)c(OC)n1` [Example C54, 5-((1H-pyrazol-1-yl)methyl)-6-methoxy-N-((3-methoxy-6-(1,1,1-trifluoro-2-methylpropan-2-yl)pyridin-2-yl)sulfonyl)picolinamide]: the pIC50 in experiment [1] and in experiment [2] was not below 8.30 in each case. This compound also registered a concentration for half-maximal inhibition (IC50) in experiment [3] (Homo sapiens, U2OS) not above 10 nM.

As for `COc1cc2c(cc1S(=O)(=O)NC(=O)c1ccc(Cn3cccn3)c(OC)n1)C(C)(C)CO2` [Example C61, 5-((1H-pyrazol-1-yl)methyl)-6-methoxy-N-((6-methoxy-3,3-dimethyl-2,3-dihydrobenzofuran-5-yl)sulfonyl)picolinamide], the negative-log IC50 (pIC50) in experiment [1] and in experiment [2] was not below 8.30 in each case. In experiment [3] (Homo sapiens, U2OS), this compound showed a 50% inhibitory concentration (IC50) not above 10 nM.

As to `COc1cc(C(=O)NS(=O)(=O)c2nc(C(C)(C)C)ccc2OC)ccc1Cn1cc(N)cn1` [Example C38], the pIC50 in experiment [1] and in experiment [2] was not below 8.30 each time. In experiment [3], this compound had an IC50 not above 10 nM.

Consider `COc1ccc2c(c1S(=O)(=O)NC(=O)c1ccc(Cn3cccn3)c(OC)n1)OC(C)(C)C2` [Example C42, 5-((1H-pyrazol-1-yl)methyl)-6-methoxy-N-((6-methoxy-2,2-dimethyl-2,3-dihydrobenzofuran-7-yl)sulfonyl)picolinamide], for which the negative logarithm of the IC50 (pIC50) in experiment [1] and in experiment [2] was not below 8.30 in each case. Also, in experiment [3] (Homo sapiens, U2OS), the IC50 was not above 10 nM.

Consider `COc1ccc(C(C)(C)C)cc1S(=O)(=O)NC(=O)c1ccc(Cn2cccn2)c(C2CC2)n1` [Example C8, 5-((1H-pyrazol-1-yl)methyl)-N-((5-(tert-butyl)-2-methoxyphenyl)sulfonyl)-6-cyclopropyl-picolinamide], for which the pIC50 in experiment [1] and in experiment [2] was not below 8.30 in each case. This compound also came in with an IC50 in experiment [3] (Homo sapiens, U2OS) not above 10 nM.

As for `COc1ccc(C(C)(C)C)nc1S(=O)(=O)NC(=O)c1ccc(Cn2cccn2)c(OC(F)F)c1` [Example C30, 4-((1H-pyrazol-1-yl)methyl)-N-((6-(tert-butyl)-3-methoxypyridin-2-yl)sulfonyl)-3-(difluoromethoxy)benzamide], the pIC50 in experiment [1] and in experiment [2] was not below 8.30 throughout. The IC50 in experiment [3] (Homo sapiens, U2OS) is not above 10 nM.

As for `COc1ccc(C(C)(C)C)nc1S(=O)(=O)NC(=O)c1ccc(Cn2cccn2)c(Cl)c1` [Example C22, 4-((1H-pyrazol-1-yl)methyl)-N-((6-(tert-butyl)-3-methoxypyridin-2-yl)sulfonyl)-3-chlorobenzamide], the pIC50 in experiment [1] and in experiment [2] was not below 8.30 in each case. In addition, in experiment [3] (Homo sapiens, U2OS), the concentration for half-maximal inhibition (IC50) is not above 10 nM.

`COc1cc(C(=O)NS(=O)(=O)c2c(OC)ccc3c2OC(C)(C)C3)ccc1Cn1cccn1` [Example C45, 4-((1H-pyrazol-1-yl)methyl)-3-methoxy-N-((6-methoxy-2,2-dimethyl-2,3-dihydrobenzofuran-7-yl)sulfonyl)benzamide]: the negative logarithm of the IC50 (pIC50) in experiment [1] and in experiment [2] was not below 8.30 throughout. In experiment [3] (Homo sapiens, U2OS), this compound had a half-inhibitory concentration (IC50) not above 10 nM.

Take `COc1ccc(C(C)(C)C)cc1S(=O)(=O)NC(=O)c1ccc(Cn2cccn2)c(Br)c1` [Example C14, 4-((1H-pyrazol-1-yl)methyl)-3-bromo-N-((5-(tert-butyl)-2-methoxyphenyl)sulfonyl)benzamide]: the pIC50 in experiment [1] and in experiment [2] was not below 8.30 throughout. Further, in experiment [3] (Homo sapiens, U2OS), the IC50 is not above 10 nM.

Consider `CCc1cc(C(=O)NS(=O)(=O)c2c(OC)ccc3c2OCC3(C)C)ccc1Cn1cccn1` [Example C51, 4-((1H-pyrazol-1-yl)methyl)-3-ethyl-N-((6-methoxy-3,3-dimethyl-2,3-dihydrobenzofuran-7-yl)sulfonyl)benzamide], for which the negative logarithm of the IC50 (pIC50) in experiment [1] and in experiment [2] was not below 8.30 in each case. In experiment [3] (Homo sapiens, U2OS), the IC50 was not above 10 nM.

Turning to `C#Cc1cc(C(=O)NS(=O)(=O)c2cc3c(cc2OC)CCC3)ccc1Cn1cccn1` [Example C9, 4-((1H-pyrazol-1-yl)methyl)-3-ethynyl-N-((6-methoxy-2,3-dihydro-1H-inden-5-yl)sulfonyl)benzamide], the pIC50 in experiment [1] and in experiment [2] was 7.30 to 8.30 each time. In addition, the concentration for half-maximal inhibition (IC50) in experiment [3] (Homo sapiens, U2OS) lay in the range of 10 to 100 nM.

Turning to `COc1ccc2c(c1S(=O)(=O)NC(=O)c1ccc(Cn3cccn3)c(OC)n1)OC1CC2C1` [Example C78, 5-((1H-pyrazol-1-yl)methyl)-6-methoxy-N-((7-methoxy-3,4-dihydro-2H-2,4-methanochroman-8-yl)sulfonyl)picolinamide], the pIC50 in experiment [1] and in experiment [2] was not below 8.30 each time. In experiment [3], this compound displayed an IC50 not above 10 nM.

For `[2H]C([2H])([2H])Oc1nc(C(=O)NS(=O)(=O)c2c(OC)ccc3c2OC(C)(C)C3)ccc1Cn1cccn1` [Example C65, 5-((1H-pyrazol-1-yl)methyl)-6-(methoxy-d3)-N-((6-methoxy-2,2-dimethyl-2,3-dihydrobenzofuran-7-yl)sulfonyl) picolinamide], the negative-log IC50 (pIC50) in experiment [1] and in experiment [2] was not below 8.30 each time. Further, in experiment [3] (Homo sapiens, U2OS), the half-inhibitory concentration (IC50) was not above 10 nM.

Turning to `COc1ccc2c(c1S(=O)(=O)NC(=O)c1ccc(Cn3cccn3)c(OC)n1)OCC2` [Example C58, 5-((1H-pyrazol-1-yl)methyl)-6-methoxy-N-((6-methoxy-2,3-dihydrobenzofuran-7-yl)sulfonyl)picolinamide], the pIC50 in experiment [1] and in experiment [2] was not below 8.30 each time. Besides, in experiment [3] (Homo sapiens, U2OS), the IC50 is not above 10 nM.

`COc1ccc(C(C)(C)C)nc1S(=O)(=O)NC(=O)c1ccc(Cn2cccn2)c(C2COC2)c1` [Example C19, 4-((1H-pyrazol-1-yl)methyl)-N-((6-(tert-butyl)-3-methoxypyridin-2-yl)sulfonyl)-3-(oxetan-3-yl)benzamid]: the negative logarithm of the IC50 (pIC50) in experiment [1] and in experiment [2] was not below 8.30 throughout. Also, the half-maximal inhibitory concentration (IC50) in experiment [3] (Homo sapiens, U2OS) lay within 10 to 100 nM.

Regarding `C=Cc1cc(C(=O)NS(=O)(=O)c2cc(C(C)(C)C)ccc2OC)ccc1Cn1cccn1` [Example C4, 4-((1H-pyrazol-1-yl)methyl)-N-((5-(tert-butyl)-2-methoxyphenyl)sulfonyl)-3-vinylbenzamide], the pIC50 in experiment [1] and in experiment [2] was not below 8.30 in each case. In addition, the half-maximal inhibitory concentration (IC50) in experiment [3] (Homo sapiens, U2OS) was not above 10 nM.

As for `COCC(C)(C)c1ccc(OC)c(S(=O)(=O)NC(=O)c2ccc(Cn3cccn3)c(OC)n2)c1` [Example C57, 5-((1H-pyrazol-1-yl)methyl)-6-methoxy-N-((2-methoxy-5-(1-methoxy-2-methylpropan-2-yl)phenyl)sulfonyl)picolinamide], the pIC50 in experiment [1] and in experiment [2] was not below 8.30 in each case. The compound further showed an IC50 in experiment [3] (Homo sapiens, U2OS) not above 10 nM.

In the case of `COc1ccc2c(c1S(=O)(=O)NC(=O)c1ccc(Cn3cccn3)c(C3CC3)n1)OC(C)(C)C2` [Example C46, 5-((1H-pyrazol-1-yl)methyl)-6-cyclopropyl-N-((6-methoxy-2,2-dimethyl-2,3-dihydrobenzofuran-7-yl)sulfonyl)picolinamide], the pIC50 in experiment [1] and in experiment [2] was not below 8.30 in each case. The compound further came in with an IC50 in experiment [3] (Homo sapiens, U2OS) not above 10 nM.

Broadly, the pIC50 is the IC50 on a negative log10 scale, so that one unit is a factor of ten. As usually defined, the IC50 is the point on the concentration scale where inhibition reaches its midpoint. The low end stands for greater potency in that assay, the high end for weaker potency in that assay.
